From patent US20250332223A1, “GHRH ANTAGONISTS FOR USE IN A METHOD OF TREATING SARCOIDOSIS” (University of Miami, priority 2019, published 2025)
Entries after “also recorded” stand apart in the source; their conditions may differ.

Assays:
[1] = tested on: mouse model of pulmonary sarcoidosis; assay: Mouse model of pulmonary sarcoidosis, lung inflammation grading (Example 1); type: in vivo, C57B1/6 mice; conditions: sarcoidosis mice, treated two weeks, vs saline-treated sarcoidosis group; MIA-602 5 μg/day intraperitoneal; FIGS. 1A-E
Experimental: Granulomatous reaction in the mouse lung was developed as previously described (Zhang et al., Front Immunol 2019; 10: 2888).
(§1) The detail of the methodology used for confocal microscopy is discussed in Zhang et al., Front Immunol 2019; 10: 2888. To summarize, mice were killed on day 14, and the left lungs were harvested. Lungs were filled with 10% buffered formalin and fixed in formalin for at least 72 h before IHC staining. H&E staining was used to determine inflammatory pathology.
(§2) Lung inflammation was scored using the three fields with the highest infiltrate's intensity at 100× power magnification as previously described (Zhang et al., Front Immunol 2019; 10: 2888). The area of inflammation was measured and averaged for the three examined high-power fields.
A mouse model of pulmonary sarcoidosis was established in C57B1/6 mice by administering microparticles intratracheally. The tongue was pulled out with a small spatula and microparticles were inserted into the trachea using a 20 G angio-catheter tube at the time of laryngeal opening and advanced to main bronchus until reach to resistant. After tube placement, microparticles were administered: a first dose of 5×10^8 CFU of M. abscessus in 50 μL with three subsequent doses of 2×10^8 CFU of M. abscessus in 20 μL. A control group received only 20 μL PBS intratracheally. Mice receiving microparticles developed noncaseating granuloma in the lung, as observed use H&E staining and immunohistochemistry staining for CD68 macrophage marker, CD4 marker, and PD-L1.
The first sarcoidosis group received MIA-602 (5 μg/day), administered via intraperitoneal injection. The second sarcoidosis group received α-melanocyte stimulating hormone (α-MSH), the third sarcoidosis group received steroid treatment (methyl-prednisone, the current first line treatment for sarcoidosis), and the fourth group received only saline. Mice were sacrificed after two weeks, and inflammation in lung samples was graded.

sarcoidosis mice model [2] = assay: Flow cytometry of lung single cells in sarcoidosis mice model (Example 5); type: in vivo; conditions: MIA-602 5 μg, two weeks
Experimental: Mice were sacrificed on day 14, and the left lungs were harvested for pathology after perfusing the right ventricle with 10 ml of PBS.
The upper half of left lung tissue (without trachea, main bronchus and branches) was removed and rinsed by PBS to clean off blood. The tissue was minced and dispersed with a scissors to increase total surface area. To develop single cell suspension, the rubber end of a 5 ml plastic syringe was used to mesh cells through a 100 μm cell strainer with continuous rinse using ice-cold RPMI 1640. Cell suspension was again meshed through a 70 μm cell strainer and rinsed thoroughly with 3 ml of washing buffer containing DNAse followed by 15 ml of DNAse-free washing buffer. The sample was centrifuged at 286×g and 18° C. for 5 min, and the supernatant was discarded (Posel et al. J Vis Exp 2016: 53658).
The cells (10^6 cells/ml) were resuspended in 100 μl protein blocking solution with 5 μl fluorescent conjugated antibodies, CD8 (Biolegend Cat #100714, CD45 (Biolegend Cat #103130), CD68 (Biolegend Cat #137004), PD-1 (Biolegend Cat #135219), PD-L1 (Biolegend Cat #124308), CD4 (Biolegend Cat #100510), CD11b (Biolegend Cat #101243), CD11c (Biolegend Cat #117318), F4/80 (Biolegend Cat #123146), or IFNg (Biolegend Cat #505836). Samples were analyzed on a BD LSR II flow cytometer using BD FACSDiva software, and data analysis was performed using Flowjo software (TreeStar, Ashland, OR). Cell populations were identified using sequential gating strategy; the expression of activation markers was presented as median fluorescence intensity. Lung immune cells were classified based on FC marker expression as previously described (Misharin et al., Am J Respir Cell Mol Biol 2013; 49: 503-510).
Mice were grouped as control, challenged with microparticles and treated with saline, challenged and treated with MIA-602 (5 μg), and challenged and treated with methyl prednisolone (100 μg). After two weeks, lungs were harvested from all groups, and lung single cells were generated for flow cytometry analysis.

sarcoidosis mice model [3] = assay: NOS2 and nitrotyrosine staining of lung in sarcoidosis mice model (Example 6); type: in vivo; conditions: daily intraperitoneal MIA-602 5 μg, lung harvested after three weeks
Experimental: (§3) For immunohistochemistry, 5-μm paraffin sections were processed by deparaffinization and rehydration followed by endogenous peroxidase blocking (1% H2O2 in methanol for 20 minutes) and antigen retrieval (boiled in 10 mM citrate buffer for 30 minutes). Tissue sections were blocked with 2% goat or horse serum (Vector Laboratories) and incubated with antibody CD68 (Proteintech, Cat #25747-1-AP), PD-1 (Cell Signaling, cat #84651), PD-L1 (Proteintech, Cat #17952-1-AP), CD30 (Lsbio, cat #LS-c162069) CD3 (Cell Signaling, cat #99940), iNOS (Invitrogen, cat #PAI-036), or Nitrotyrosine (Novus, NBP2-54606) over night at 4° C., washed with TBST five times, then exposed to secondary antibodies (Vector Laboratories, cat #PI-2000). Immunoreactivity was detected using the ABC Elite kit (Vector Laboratories). DAB was used as final chromogen and hematoxylin as the nuclear counterstain. Negative controls for all antibodies were made by replacing the primary antibody with non-immunogen IgG.
Inducible nitric oxide synthases (iNOS) produces nitric oxide and has a crucial role in granuloma development. iNOS is expressed in macrophages after exposure to bacterial lipopolysaccharides and IFNγ (Facchetti et al., Am J Pathol 1999; 154: 145-152). […] Lung tissue was harvested after three weeks and tissue stained with NOS2 and nitrotyrosine. […] The finding was not statistically significant.

[4] = tested on: in vitro granuloma model (PBMCs challenged with microparticles); assay: Pro- and anti-apoptotic protein levels in in vitro granuloma model (Example 3); type: cell-based, human; conditions: 1 μM MIA-602, 48 h
Experimental: In vitro granuloma was developed by challenging PBMC with microparticles as previously described (Zhang et al., Sci Rep 2020; 10: 7277). (Zhang et al., Sci Rep 2020; 10: 7277), PBMCs were lysed in lysis buffer (Cell Signaling Technology, Beverly, MA) with protease inhibitor cocktail (Cell Signaling Technology, Beverly, MA) and sonicated three times for 2 seconds each with at least 1-min rest on ice between each 2-s pulse. Samples were centrifuged at 10,000×g for 5 min at 4° C. and the supernatant was collected. Protein concentration was determined by BCA protein assay kit from Cell Signaling Technology. The methodology is further described in .Zhang et al., Sci Rep 2020; 10: 7277. Thirty micrograms of total protein were mixed in a reducing sample buffer and used for mitochondrial apoptosis assay per the kit instruction. The assay was performed using a Bio-Rad kit (171-WAR3CK). The ability of a peptide of the disclosure, MIA-602, to influence respiration and apoptosis in granuloma cells was examined. The specific processes of apoptosis and mitochondrial dynamics in granuloma have not been fully elucidated. To test if MIA-602 had pro- or anti-apoptotic effects, the protein levels of pro-(active caspase-3) and anti-apoptotic factors (survivin, Bcl-xL/Bak dimer, and Mcl-1/Bak dimer) were measured in an in vitro granuloma model. […] Media were removed 48 h after treatment.

[5] = tested on: granuloma (PBMC challenged with microparticles); assay: Cytokine production in in vitro granuloma from PBMC of sarcoidosis subjects, multiplex ELISA (Example 2); type: cell-based, human; conditions: 1 microM MIA-602, 48 h, media
Experimental: In vitro granuloma was developed by challenging PBMC with microparticles as previously described (Zhang et al., Sci Rep 2020; 10: 7277).
To measure cytokines in media, supernatant aliquot samples were analyzed, thawed, and spun at 12,000 rpm for 10 min to separate the particulate material at the bottom. Fifty μl of undiluted media was plated from each sample onto a 96-well V-bottom plate (source plate) by manual pipetting according to predefined maps. The aliquots were wrapped in parafilm and kept in a humid chamber at 4° C. during the entire process, but not longer than 72 hr. Growth factors and their receptor's capture antibodies were reconstituted and diluted per manufacturer specification and 50 μl plated into each well of respective 96-well high-binding half-well plates, which were then sealed and incubated overnight at 4° C. The cytokine levels were measured using a procartaplex human th1/th2 cytokine panel 11 plex from Invitrogen, (epx110-10810-901).
Granuloma and PBMC were collected from five sarcoidosis subjects. The samples were grouped as control (not challenged), granuloma group challenged with a 10:1 treatment with microparticles but left untreated, challenged granuloma group treated with 1 microM MIA-602 in vitro, and challenged granuloma group treated with methyl prednisolone in vitro. Media were removed 48 h after of treatments. Cytokines were measured using an multiplex ELISA instrument.

[6] = tested on: mouse pulmonary granulomatous model; assay: Mouse pulmonary granulomatous model, H&E and IHC scoring of lung (Example 4); type: in vivo, C57B1/6 mice
Experimental: as §1, §3, §2
A mouse pulmonary granulomatous model was established for studying type I IFN pathways after exposure to M. abscessus cell wall. The model is applicable for pulmonary sarcoidosis studies due to its characteristics of noninfectious lung granulomatous model. C57B1/6 mice were used to develop the model (Zhang et al., Front Immunol 2019; 10: 2888).
Mice were treated with 5 μg of a peptide of the disclosure, MIA-602, per day via intraperitoneal injection. After two weeks, the mice were sacrificed, and lung inflammation was graded by a lung pathologist. Lung samples were stained with H&E, CD68, PD1, PD-L1, and CD30, and scored based on percentage of cells expressing each marker.

sarcoidosis mice model [7] = assay: RNASeq transcriptomics of lung in sarcoidosis mice model (Example 7); type: in vivo; conditions: granuloma mice, daily MIA-602 5 μg intraperitoneal vs saline
Experimental: RNA from mouse lungs were extracted using RNA Miniprep Plus Kit (Zymo Research). Briefly, whole lung was homogenized in TRI reagent and total RNA extraction was performed following the instructions provided by the manufacturer with additional DNase treatment. Quantity and quality of the samples were determined by NanoDrop spectrophotometer and Agilent Bioanalyzer 2100, respectively (Zhang et al., Front Immunol 2019; 10: 2888).
Preparation and sequencing of RNA libraries was performed. Briefly, total RNA quantity and quality were determined using the Agilent Bioanalyzer. At least 300 ng of total RNA was used as input for the KAPA RNA HyperPrep Kit with RiboErase (HMR) according to manufacturer's protocol to create ribosomal RNA-depleted sequencing libraries. Sequencing was performed on the Illumina NextSeq 500, generating ˜40 million single-end 75 base reads per sample. Sequencing data were processed with a bioinformatics pipeline including quality control, alignment to the […], and gene quantification. Count data was inputted into edgeR software for differential expression analysis. Counts were normalized using the trimmed mean of M-values (TMM) method to account for compositional difference between the libraries and paired differential expression analysis using a generalized linear model with sample as a blocking factor. […]

**Q.** With C[C@H]1C[C@@H]2[C@H]([C@@H](O)C[C@@]3(C)[C@H]2CC[C@]3(O)C(=O)COC(=O)CCC(=O)[O-])[C@@]2(C)C=CC(=O)C=C12.[Na+] [methyl-prednisone] as the compound, how does the “inflammation in lung samples (inflammation score)” value (from here on “inflammation in lung samples”) [1] read?
**A.** did not affect inflammation

**Q.** For “[PhAc-Ada^0-Tyr^1, D-Arg^2, Fpa5^6, Ala^8, Har^9, Tyr(Me)^10, His^11, Orn^12, Abu^15, His^20, Orn^21, Nle^27, D-Arg^28, Har^29]hGH-RH(1-29)NH2 [MIA-602]”, which “population of CD45+CD68 cells” value (sarcoidosis mice model [2]; FIG. 6A) is on record?
**A.** significantly reduced

**Q.** And the “percentage of CD45+CD68+ cells that expressed PD-1” value (sarcoidosis mice model [2]; FIG. 6B)?
**A.** significantly increased

**Q.** What about the “population of CD45+CD68+PD-L1 cells” value (sarcoidosis mice model [2]; FIG. 6C) of the same compound?
**A.** a higher percentage was detected

**Q.** What about the NOS2 expression (sarcoidosis mice model [3]; FIG. 7) of the same compound?
**A.** reduced following MIA-602 treatment. The finding was not statistically significant

**Q.** And the nitrotyrosine levels (sarcoidosis mice model [3]; FIG. 8)?
**A.** reduced the nitrotyrosine levels, but the reduction was not statistically significant

**Q.** What about the “inflammation in lung samples” value [1] of the same compound?
**A.** lower inflammation scores

**Q.** What about the survivin levels ([4]; FIG. 3A) of the same compound?
**A.** no statistical difference between groups

**Q.** What about the “active caspase 3 level” value ([4]; FIG. 3D) of the same compound?
**A.** further increased

**Q.** What about the “level of Mcl-1/Bak dimer” value ([4]; reduced in untreated granuloma, FIG. 3B) of the same compound?
**A.** restored

**Q.** What about the “BclxL/Bak Dimer levels” value ([4]; vs granuloma treated with saline, FIG. 3C) of the same compound?
**A.** increased

**Q.** What about the “cytokine production of CCL2” value [5] of the same compound?
**A.** significantly reduced

**Q.** What about the “cytokine production of CCL5” value [5] of the same compound?
**A.** significantly reduced

**Q.** What about the “cytokine production of CXCL9” value [5] of the same compound?
**A.** significantly reduced

**Q.** And the “cytokine production of IFNα” value [5]?
**A.** significantly reduced

**Q.** And the “cytokine production of IL2” value [5]?
**A.** significantly reduced

**Q.** What about the “cytokine production of IL7” value [5] of the same compound?
**A.** significantly reduced

**Q.** And the “cytokine production of IL10” value [5]?
**A.** significantly reduced

**Q.** And the “cytokine production of IL12” value [5]?
**A.** significantly reduced

**Q.** And the “cytokine production of IL15” value [5]?
**A.** significantly reduced

**Q.** What about the “cytokine production of IL17A” value [5] of the same compound?
**A.** significantly reduced

**Q.** What about the lung inflammation score ([6]; 5 μg MIA-602 per day intraperitoneal, two weeks, vs granuloma group, H&E) of the same compound?
**A.** lower inflammation scores; also recorded: almost normalized

**Q.** And the “CD30 cells in lung” value ([6]; 5 μg MIA-602 per day intraperitoneal, two weeks, IHC)?
**A.** nonsignificantly reduced

**Q.** And the “percentage of CD68+ cells in the lung” value ([6]; 5 μg MIA-602 per day intraperitoneal, two weeks, IHC, changes not statistically significant)?
**A.** decreased

**Q.** And the “PD-1+ cells in the lung” value ([6]; 5 μg MIA-602 per day intraperitoneal, two weeks, IHC, same pattern as CD68+ (increased in granuloma, decreased with MIA-602, not significant))?
**A.** This pattern was seen

**Q.** What about the “inflammatory cell numbers in lung tissue” value ([6]; summary of animal model study) of the same compound?
**A.** reduced inflammatory cell numbers significantly

**Q.** What about the genes downregulated (sarcoidosis mice model [7]) of the same compound?
**A.** 293 genes

**Q.** What about the genes upregulated (sarcoidosis mice model [7]) of the same compound?
**A.** 778 genes

**Q.** How did the “inflammation in lung samples” value [1] turn out when “α-melanocyte stimulating hormone [a-MSH]” was run?
**A.** lower inflammation scores
